Results taken from patent publication US20040156881A1, “Use of lignans in foods” (priority 2001, published 2004).

Assays:
[1] = test system: Procollagen-I and Decorin production by the human dermal fibroblasts; assay: Procollagen-I and decorin synthesis in human dermal fibroblasts (anti-ageing cell assay, dot blot); assay type: cell-based; settings: primary human foreskin fibroblasts, serum free DMEM, 24 hours, different concentration levels, FIGS. 3 and 4
Method: It is emphasized that the anti-ageing effects were determined by in vitro tests wherein the Procollagen-I and Decorin production by the human dermal fibroblasts is measured after being induced by the anti-ageing stimulus. An increase in the levels of Procollagen-I is indicative of the anti-ageing effect.
Preparation of Dermal Fibroblast Conditioned Medium: Primary human foreskin fibroblasts at passage 2 (P2) were seeded into 12-well plates at 40000 cells/well and maintained for 24 hours in an atmosphere of 5% carbon dioxide and 4% oxygen in Dulbeccos Modified Eagles Medium (DMEM) supplemented with 10% foetal calf serum. After this time the cells were washed with serum free DMEM and then incubated in fresh serum free DMEM for a further 60 hours. The fibroblast monolayers were then washed again with serum free DMEM.
The test reagent (MAT and SECO at different concentration levels) and vehicle control (1% ethanol final concentration) were added to the cells in triplicate in a final volume of 0.4 ml/well fresh serum free DMEM and incubated for a further 24 hours. This fibroblast conditioned medium was either analysed immediately, or, snap frozen in liquid nitrogen and stored at −70° C. for future analysis. The cells were then counted and data from the dot-blot analysis subsequently standardised to cell number. […]

[2] = test system: Prostaglandin E2 (=PGE2) production by the human skin fibroblasts; assay: PGE2 levels in PMA-induced human dermal fibroblasts (anti-inflammatory cell assay); assay type: cell-based; settings: primary human foreskin fibroblasts, FIGS. 1 and 2; for concentration dependence of anti-inflammatory effect as measured by a reduction in PGE2: increasing concentrations; for anti-inflammatory effect (PGE2 level versus control+veh+PMA): three concentration levels
Method: It is emphasized that the anti-inflammatory effects were determined by in vitro tests wherein the Prostaglandin E2 (=PGE2) production by the human skin fibroblasts is measured after being induced by the inflammatory modulus phorbyl myristyl acetate (PMA). A reduction of the levels of PGE2 is indicative of the anti-inflammatory effect.
Fibroblast cell assay: Primary human foreskin fibroblasts at passage 2 (P2) were seeded into 96-well plates at 35000 cells/well and maintained for 24 hours in an atmosphere of 5% carbon dioxide in Dulbeccos Modified Eagles Medium (DMEM) supplemented with 10% foetal calf serum.
The lignan-compound (SECO or MAT) was added to fresh cell media (DMEM, supplemented with 10% foetal calf serum) in 100% ethanol (final concentration 1%) in triplicate and incubated for a further 24 hours. Phorbal myristate acetate (PMA) in ethanol/cell media ([…]) was added to the cells treated with the lignan compound (SECO) and the cells incubated for a further 24 hours. PMA represents an external stressor, which induces oxidative stress and inflammatory responses in cells. The fibroblasts/media were then analysed as described below immediately, or, snap frozen in liquid nitrogen and stored at −70° C. for future analysis. The cells were then counted to ensure no effect on cell number.
Different concentrations of SECO or MAT were used in the above method to study the effect of concentration. A series of control experiments were also carried out according to the above method; Control+veh+PMA (positive control), Control+veh (negative control) and control (standard control).
Prostaglandin E2 (PGE2) assay volumes of 50 μl culture medium were taken for PGE2 assay from the above samples after gently shaking the culture plate. PGE2 levels in the medium were determined with a Biotrak PGE2 immunoassay kit (Amersham, UK). The assay is based on the competition between unlabelled PGE2 in the sample and a fixed quantity of horseradish peroxidase labelled PGE2 for a limited amount of fixed PGE2 specific antibody. Concentrations of unlabelled sample PGE2 are determined according to a standard curve, which was obtained at the same time.

Compound	anti-ageing effects (procollagen-I and decorin synthesis relative to vehicle treated control of 100 arbitrary units) [1]	concentration dependence of anti-inflammatory effect as measured by a reduction in PGE2 [2]	anti-inflammatory effect (PGE2 level versus control+veh+PMA) [2]
COc1cc(C[C@@H](CO)[C@H](CO)Cc2ccc(O)c(OC)c2)ccc1O [SECO, secoisolariciresinol]	showed increased anti-ageing effects in human cells compared to a control sample	produced increasing anti-inflammatory effects	effective in producing an anti-inflammatory effect in human cells
COc1cc(C[C@H]2COC(=O)[C@@H]2Cc2ccc(O)c(OC)c2)ccc1O [MAT, matairesinol]	showed increased anti-ageing effects in human cells compared to a control sample	produced increasing anti-inflammatory effects	effective in producing an anti-inflammatory effect in human cells
